The source of these data is patent publication US20220259593A1, “CONTROL OF MAMMALIAN GENE DOSAGE USING CRISPR” (The Regents of the University of California, priority 2019, published 2022).

Series [1] relates to K562 CRISPRi cells. Put plainly: Perturb-seq pooled growth measurement (sgRNA counts, growth phenotype γ, relative activity). The conditions noted are these: for gamma_day5 / gamma_day10: pooled growth phenotype γ of the Perturb-seq sgRNA; for gamma_day5: day 5, K562 CRISPRi cells; for gamma_day10: day 10, K562 CRISPRi cells; for relative_activity_day5: γ relative to perfectly matched sgRNA (_00) of the same gene, day 5. In kind it is cell-based, human. In a few lines: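 CRISPRi K562 cells from the Perturb-seq transduced pool; 500,000-cell samples taken days two, seven and twelve post-transduction. sgRNA amplicons from genomic DNA sequenced; growth phenotypes from normalized sgRNA abundances at days seven and twelve versus day two. Relative activity assigned from day seven (five days' growth).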

For series [2], the system named is K562 CRISPRi cells. The series is described as above. Particulars: γ relative to perfectly matched sgRNA (_00) of the same gene, day 10. In kind it is cell-based, human.

In the series with K562 CRISPRi cells [1], “RAN_ + _131356438.23-P1P2_12 (guide GGCGGTCGCTGCGCTTAGGT; listed as DNA, chemistry not fully specified)” yielded a gamma_day5 of −0.04655, a gamma_day10 of −0.03426 and a relative_activity_day5 of 0.2358. The relative_activity_day10 in the series on K562 CRISPRi cells [2] is listed as 0.2122.
On the same counts, the results for “RPL9_ + _39460483.23-P1P2_00 (guide GGATGTTTCTGTGCTCGTGG; listed as DNA, chemistry not fully specified)” are −1.113, −0.6699, 1 and 1.
On the same counts, the results for “RPL9_ + _39460483.23-P1P2_01 (guide GGATGATTCTGTGCTCGTGG; listed as DNA, chemistry not fully specified)” are −0.8528, −0.4984, 0.7661 and 0.7441.
Taken in the same sequence, the figures for “RPL9_ + _39460483.23-P1P2_04 (guide GGATGTTTCAGTGCTCGTGG; listed as DNA, chemistry not fully specified)” were −0.4171, −0.2942, 0.3747 and 0.4392.
In the series with K562 CRISPRi cells [1], “RPL9_ + _39460483.23-P1P2_05 (guide GGATGTTTCGGTGCTCGTGG; listed as DNA, chemistry not fully specified)” showed a gamma_day5 of −0.6073, a gamma_day10 of −0.3848 and a relative_activity_day5 of 0.5456. The substance further registered a relative_activity_day10 in the series on K562 CRISPRi cells [2] of 0.5745.
Taken in the same sequence, the figures for “RPL9_ + _39460483.23-P1P2_07 (guide GGATGTTTCTGCGCTCGTGG; listed as DNA, chemistry not fully specified)” were −0.2924, −0.2073, 0.2627 and 0.3095.
In the series on K562 CRISPRi cells [1], “RPS14_ + _149829238.23-P1P2_00 (guide GAGGCCCGGGCGCGACAATC; listed as DNA, chemistry not fully specified)” yielded a gamma_day5 of −0.7908, a gamma_day10 of −0.4995 and a relative_activity_day5 of 1. Also, the relative_activity_day10 in the series on K562 CRISPRi cells [2] stood at 1.
For “RPS14_ + _149829238.23-P1P2_01 (guide GAGACCCGGGCGCGACAATC; listed as DNA, chemistry not fully specified)”, in the series with K562 CRISPRi cells [1], the gamma_day5 is −0.7548, the gamma_day10 was −0.4807 and the relative_activity_day5 turned out to be 0.9545. This substance displayed a relative_activity_day10 in the series with K562 CRISPRi cells [2] of 0.9624.
Taken in the same sequence, the figures for “RPS14_ + _149829238.23-P1P2_02 (guide GAGGCCCTGGCGCGACAATC; listed as DNA, chemistry not fully specified)” were −0.5845, −0.3829, 0.739 and 0.7666.
On the same counts, the results for “RPS14_ + _149829238.23-P1P2_04 (guide GAGGCCCGCGCGCGACAATC; listed as DNA, chemistry not fully specified)” are −0.3025, −0.1958, 0.3825 and 0.3919.
Taken in the same sequence, the figures for “RPS14_ + _149829238.23-P1P2_08 (guide GAGGCCCGGGCTCGACAATC; listed as DNA, chemistry not fully specified)” were 0.02738, −0.0006109, −0.03462 and 0.001223.
With “RPS14_ + _149829238.23-P1P2_13 (guide GAGGCCCGGGCGCGACAGTC; listed as DNA, chemistry not fully specified)”, in the series with K562 CRISPRi cells [1], the gamma_day5 is −0.2119, the gamma_day10 was −0.1559 and the relative_activity_day5 was determined as 0.268. The relative_activity_day10 in the series on K562 CRISPRi cells [2] was 0.3122.
In the series on K562 CRISPRi cells [1], “RPS15_ −_1438413.23-P1P2_00 (guide GACCAAAGCGATCTCTTCTG; listed as DNA, chemistry not fully specified)” showed a gamma_day5 of −0.6212, a gamma_day10 of −0.376 and a relative_activity_day5 of 1. This substance also gave a relative_activity_day10 in the series on K562 CRISPRi cells [2] of 1.
In the series with K562 CRISPRi cells [1], “RPS15_ −_1438413.23-P1P2_01 (guide GACCAAACCGATCTCTTCTG; listed as DNA, chemistry not fully specified)” gave a gamma_day5 of 0.006616, a gamma_day10 of 0.001422 and a relative_activity_day5 of −0.01064. The relative_activity_day10 with K562 CRISPRi cells [2] is on record as −0.003782.
Taken in the same sequence, the figures for “RPS15_ −_1438413.23-P1P2_02 (guide GACCAAGGCGATCTCTTCTG; listed as DNA, chemistry not fully specified)” were −0.4922, −0.3145, 0.7923 and 0.8366.
Taken in the same sequence, the figures for “RPS15_ −_1438413.23-P1P2_07 (guide GACCAAAGCGGTCTCTTCTG; listed as DNA, chemistry not fully specified)” were −0.5221, −0.3074, 0.8404 and 0.8176.
In the series on K562 CRISPRi cells [1], “RPS15_ −_1438413.23-P1P2_12 (guide GACCAAAGCGATCTCTTGTG; listed as DNA, chemistry not fully specified)” registered a gamma_day5 of 0.0311, a gamma_day10 of 0.01173 and a relative_activity_day5 of 0.05005. This substance also gave a relative_activity_day10 in the series on K562 CRISPRi cells [2] of 0.03119.
Taken in the same sequence, the figures for “RPS18_ + _33239917.23-P1P2_00 (guide GCTGCGATGCCGCTGGATCA; listed as DNA, chemistry not fully specified)” were −0.8169, −0.503, 1 and 1.
Taken in the same sequence, the figures for “RPS18_ + _33239917.23-P1P2_01 (guide GCTGCAATGCCGCTGGATCA; listed as DNA, chemistry not fully specified)” were −0.5598, −0.3779, 0.6853 and 0.7514.
Taken in the same sequence, the figures for “RPS18_ + _33239917.23-P1P2_02 (guide GCTGGGATGCCGCTGGATCA; listed as DNA, chemistry not fully specified)” were −0.4898, −0.3191, 0.5995 and 0.6345.
For the substance “RPS18_ + _33239917.23-P1P2_04 (guide GCTGCGATCCCGCTGGATCA; listed as DNA, chemistry not fully specified)”, in the series with K562 CRISPRi cells [1], the gamma_day5 is −0.08697, the gamma_day10 is reported as −0.08068 and the relative_activity_day5 is given as 0.1065. Also, the relative_activity_day10 in the series with K562 CRISPRi cells [2] is reported as 0.1604.
Turning to “RPS18_ + _33239917.23-P1P2_08 (guide GCTGCGATTCCGCTGGATCA; listed as DNA, chemistry not fully specified)”, in the series on K562 CRISPRi cells [1], the gamma_day5 is −0.2228, the gamma_day10 is on record as −0.1637 and the relative_activity_day5 amounted to 0.2727. The relative_activity_day10 in the series with K562 CRISPRi cells [2] was found to be 0.3255.
On the same counts, the results for “SEC61A1_ −_127771295.23-P1_00 (guide GGCACTGACGTGTCTCTCGG; listed as DNA, chemistry not fully specified)” are −0.92, −0.5629, 1 and 1.
In the series on K562 CRISPRi cells [1], “SEC61A1_ −_127771295.23-P1_01 (guide GGCACTGTCGTGTCTCTCGG; listed as DNA, chemistry not fully specified)” had a gamma_day5 of −0.4191, a gamma_day10 of −0.2918 and a relative_activity_day5 of 0.4556. Besides, the relative_activity_day10 with K562 CRISPRi cells [2] was 0.5184.
In the series on K562 CRISPRi cells [1], “SEC61A1_ −_127771295.23-P1_02 (guide GGCGCTGACGTGTCTCTCGG; listed as DNA, chemistry not fully specified)” gave a gamma_day5 of −0.6451, a gamma_day10 of −0.4055 and a relative_activity_day5 of 0.7012. In addition, the relative_activity_day10 in the series on K562 CRISPRi cells [2] worked out at 0.7203.
On the same counts, the results for “SEC61A1_ −_127771295.23-P1_03 (guide GGTACTGACGTGTCTCTCGG; listed as DNA, chemistry not fully specified)” are −0.5031, −0.3419, 0.5469 and 0.6074.
Taken in the same sequence, the figures for “SEC61A1_ −_127771295.23-P1_04 (guide GGCACTGAAGTGTCTCTCGG; listed as DNA, chemistry not fully specified)” were −0.1539, −0.1153, 0.1673 and 0.2049.
Taken in the same sequence, the figures for “TUBB_ + _30688126.23-P1_00 (guide GCGGCAGGAAGGTTCTGAGA; listed as DNA, chemistry not fully specified)” were −0.897, −0.6999, 1 and 1.
